Values quoted from earlier work, collected in patent publication US20060052437A1, “Combination of an hmg-coa reductase inhibitor and a nitrate ester” (priority 2002, published 2006).

Experiments:
[1] = at withdrawal from the market, August 2001
[2] = compared to aspirin

Row | SMILES | deaths attributable to rhabdomyolysis [1] [deaths] | toxicity at gastric level [2]
1 | COCc1c(C(C)C)nc(C(C)C)c(/C=C/[C@@H](O)C[C@@H](O)CC(=O)O)c1-c1ccc(F)cc1 [cerivastatin] | 52 | 
2 | CC(=O)Oc1ccccc1C(=O)Oc1cccc(CO[N+](=O)[O-])c1 [NCX-4016, 2-acetyloxy-benzoic acid 3-nitroxymethyl-phenyl ester] |  | not toxic at gastric level
